Results as given in patent US6376243B1, “DNA encoding a human serotonin receptor (5-HT4B) and uses thereof” (Synaptic Pharmaceutical Corporation, priority 1992, dated 2002).
Like-named read-outs stand apart in the source and are kept apart here.

Experiments:
[1] = target: T1, clone hp78a (human 5-HT4B receptor) (Homo sapiens, UniProt P34969); experiment: Competition of [3H]5-HT binding to membranes of cells transiently expressing clone hp78a
human 5-HT4B receptor = human 5-HT4B receptor (Homo sapiens, UniProt P34969); experiment: cAMP formation in intact Cos-7 cells transiently expressing the receptor; conditions: for inhibition at 10 µM: COS-7, read-out: % INHIBITION OF 5-HT RESPONSE
human 5-HT4B receptor, sequence (P34969 1-445 isoform P34969-2): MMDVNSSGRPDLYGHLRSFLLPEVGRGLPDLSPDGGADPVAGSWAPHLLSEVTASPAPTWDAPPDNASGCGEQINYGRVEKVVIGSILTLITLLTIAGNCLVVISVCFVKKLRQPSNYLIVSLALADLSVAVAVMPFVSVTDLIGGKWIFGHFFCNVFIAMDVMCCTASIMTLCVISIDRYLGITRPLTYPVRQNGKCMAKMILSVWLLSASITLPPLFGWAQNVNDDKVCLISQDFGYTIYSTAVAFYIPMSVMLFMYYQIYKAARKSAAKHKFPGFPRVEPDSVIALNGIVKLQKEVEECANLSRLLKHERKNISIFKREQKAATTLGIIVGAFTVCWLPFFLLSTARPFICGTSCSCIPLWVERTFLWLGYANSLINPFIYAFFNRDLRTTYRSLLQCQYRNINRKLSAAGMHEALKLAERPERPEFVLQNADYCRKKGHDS

[2] = target: T1, clone hp78a (human 5-HT4B receptor); experiment: [3H]5-HT saturation binding to membranes of transiently transfected Cos-7 cells; conditions: 100 μM Gpp(NH)p; membranes from transient transfectants
[3] = read-out: Apparent dissociation constant Ki
[4] = 5 nM [3H]5-HT, 30 min at 37° C., mean ± S.E.M.
[5] = Apparent dissociation constant Ki
[6] = Apparent dissociation constant Ki, 5 nM [3H]5-HT, seven concentrations of competitor, 30 min at 37° C., Cheng-Prusoff, mean ± S.E.M. from 2-3 determinations
[7] = competitor 100 nM, 5 nM [3H]5-HT, 30 min at 37° C.

T1 sequence (P34969 1-445 isoform P34969-2): as above

For `CC(C)NCC(O)COc1cccc2[nH]ccc12` (racemic) [Pindolol], the “PERCENT INHIBITION of specific [3H]5-HT binding” value (from here on “PERCENT INHIBITION of specific”) [1] was 11%.

For `c1ccc2c(N3CCNCC3)cccc2c1` [1-NP, 1-naphthylpiperazine], the “PERCENT INHIBITION of specific” value [1] was 44%.

In the case of `CCN(CC)C(=O)[C@@H]1C=C2c3cccc4[nH]c(Br)c(c34)C[C@H]2N(C)C1` [2-Br-LSD], the “Hill coefficient nH” value [1] is reported as 1.02 ± 0.16, the Ki [1, 3] is reported as 39 ± 7 nM and the “FOLD cAMP STIMULATION relative to basal levels” value (human 5-HT4B receptor; drug 1 μM, intact Cos-7 cells) is reported as 0 fold.

In the case of `Cc1[nH]c2ccc(O)cc2c1CCN` [2-Me-5-HT], the “PERCENT INHIBITION of specific” value [1] is reported as 7%.

`NCCc1c[nH]c2ccc(O)cc12` [5-HT, 5-hydroxytryptamine] was tested, and the “Hill coefficient nH” value [1, 4] was 1.07 ± 0.07, the “inhibition of basal or FSK-stimulated cAMP release” value (human 5-HT4B receptor; 5-HT 1 μM, transfected Cos-7 cells) was “not observed” and the “increase in cAMP release over basal levels” value (human 5-HT4B receptor; discussion statement) was 20 fold. For the same molecule, the “Ki in binding assays higher affinity than EC50 in functional assays” value (human 5-HT4B receptor; ratio of EC50 to Ki) was “approximately 100 fold”.

With `COc1ccc2[nH]cc(CCN)c2c1` [5-MeOT] the “Hill coefficient nH” value [1] was 1.00 ± 0.03 and the “agonist activity on cAMP” value (human 5-HT4B receptor) was “potent agonists”.

With `CC(C)C[C@H]1C(=O)N2CCC[C@H]2[C@]2(O)O[C@](NC(=O)[C@@H]3C=C4c5cccc6[nH]c(Br)c(c56)C[C@H]4N(C)C3)(C(C)C)C(=O)N12` [Bromocriptine] the “Hill coefficient nH” value [1] was 1.15 and the Ki [1, 5] was 135 nM.

`CN(C)CCc1c[nH]c2ccc(O)cc12` [Bufotenin] was tested, and the “PERCENT INHIBITION of specific” value [1] was 40%.

With `CN1CCC(=C2c3ccccc3C=Cc3ccccc32)CC1` [Cyproheptadine] the “PERCENT INHIBITION of specific” value ([1]; competitor 30 nM, 5 nM [3H]5-HT, 30 min at 37° C.) was 36%.

`CCCN(CCC)CCc1c[nH]c2ccc(C(N)=O)cc12` [DP-5-CT] was tested, and the “Hill coefficient nH” value [1] was 0.78 and the Ki [1, 3] was 62 nM.

With `CCCN(CCC)C1CCc2cccc(O)c2C1` (centres unmarked) [DPAT] the “Hill coefficient nH” value [1, 4] was 0.76.

`CN1C[C@H](C(=O)N[C@]2(C)O[C@@]3(O)[C@@H]4CCCN4C(=O)[C@H](Cc4ccccc4)N3C2=O)C[C@@H]2c3cccc4[nH]cc(c34)C[C@H]21` [Dihydroergotamine] was tested, and the “Hill coefficient nH” value [1] was 1.36 ± 0.08, the Ki [1, 5] was 6 ± 0.2 nM and the Ki [1, 3] was 5 to 10 nM.

`CN1C[C@H](C(=O)N[C@]2(C)O[C@@]3(O)[C@@H]4CCCN4C(=O)[C@H](Cc4ccccc4)N3C2=O)C=C2c3cccc4[nH]cc(c34)C[C@H]21` [Ergotamine] was tested, and the “PERCENT INHIBITION of specific” value [1] was 79%.

`Nc1nc2c(ncn2[C@@H]2O[C@H](COP(=O)(O)OP(=O)(O)NP(=O)(O)O)[C@@H](O)[C@H]2O)c(=O)[nH]1` [Gpp(NH)p, 5′-guanylylimidodiphosphate] was tested, and the “reduction of high affinity [3H]5-HT binding” value [2] was 75%.

For `CN1[C@@H]2CC[C@H]1C[C@@H](OC(=O)c1c[nH]c3ccccc13)C2` [ICS 203930], the Ki ([1]; read-out: Apparent dissociation constant Ki, 5 nM [3H]5-HT, seven concentrations of competitor, 30 min at 37° C., Cheng-Prusoff, mean ± S.E.M. from 2-3 determinations) was over 500 nM, the “inhibitory effect on the 5-HT cAMP response” value (human 5-HT4B receptor; 100 μM) was “weak inhibitory effect” and the “activity at the 5-HT4B receptor” value (human 5-HT4B receptor; discussion statement) was “either poorly active or inactive”.

For `O=C(c1ccc(F)cc1)C1CCN(CCn2c(=O)[nH]c3ccccc3c2=O)CC1` [Ketanserin], the Ki [1, 6] was over 100 nM and the “PERCENT INHIBITION of specific” value [1, 7] was 17%.

`CN1C[C@@H](NS(=O)(=O)N(C)C)C[C@@H]2c3cccc4c3c(cn4C)C[C@H]21` [Mesulergine] was tested, and the “Hill coefficient nH” value [1, 4] was 1.09 and the Ki [1, 6] was 9.6 nM.

In the case of `CN1C[C@H](CNC(=O)OCc2ccccc2)C[C@@H]2c3cccc4c3c(cn4C)C[C@H]21` [Metergoline], the “Hill coefficient nH” value [1, 4] is reported as 1.23, the Ki [1, 6] is reported as 5.5 nM and the “antagonism of the 5-HT cAMP response” value (human 5-HT4B receptor; 10 μM) is reported as “almost completely”. For the same molecule, the inhibition at 10 µM (human 5-HT4B receptor) was 96 ± 1%.

`CC[C@@H](CO)NC(=O)[C@@H]1C=C2c3cccc4c3c(cn4C)C[C@H]2N(C)C1` [Methysergide] was tested, and the “PERCENT INHIBITION of specific” value [1] was 51%, the “antagonism of the 5-HT cAMP response” value (human 5-HT4B receptor) was “almost completely” and the inhibition at 10 µM (human 5-HT4B receptor) was 82 ± 1.5%.

`Cc1nc2sccn2c(=O)c1CCN1CCC(=C(c2ccc(F)cc2)c2ccc(F)cc2)CC1` [Ritanserin] was tested, and the “PERCENT INHIBITION of specific” value ([1]; competitor 10 nM, 5 nM [3H]5-HT, 30 min at 37° C.) was 32%.

`O=C(CCCN1CCC2(CC1)C(=O)NCN2c1ccccc1)c1ccc(F)cc1` [Spiperone] was tested, and the “PERCENT INHIBITION of specific” value [1, 7] was 64%.

In the case of `CNS(=O)(=O)Cc1ccc2[nH]cc(CCN(C)C)c2c1` [Sumatriptan], the “Hill coefficient nH” value [1, 4] is reported as 0.88 ± 0.03 and the Ki [1, 6] is reported as 764 ± 29 nM.

`NCCc1c[nH]c2ccccc12` [Tryptamine] was tested, and the “PERCENT INHIBITION of specific” value [1] was 32%.

`COc1cc(N)c(Cl)cc1C(=O)NC1CN2CCC1CC2` (centres unmarked) [Zacopride] was tested, and the Ki [1, 6] was over 500 nM, the “PERCENT INHIBITION of specific” value [1, 7] was 0% and the “activity at the 5-HT4B receptor” value (human 5-HT4B receptor; discussion statement) was “either poorly active or inactive”.

For `COc1cc(N)c(Cl)cc1C(=O)NC1CCN(CCCOc2ccc(F)cc2)CC1OC` (centres unmarked) [cisapride], the “activity at the 5-HT4B receptor” value (human 5-HT4B receptor; discussion statement) was “either poorly active or inactive”.
